Source: publication PMC3970309 (Infection & Chemotherapy, 2014)

Type: in vivo, human
Conditions: percent; CLCr > 60 mg/dL (normal renal function), n = 22

Patients with plasma teicoplanin >10mg/L: 63%
Substance: teicoplanin
